Measurements reported in patent publication US9604975B2, “Indolyl-pyridone derivatives having checkpoint kinase 1 inhibitory activity” (Vernalis (R&D) Ltd., priority 2009, dated 2017).

Target: T1, CHK1 (Homo sapiens, UniProt O14757)
T1 construct: His; purchased Invitrogen
T1 sequence (O14757 1-476): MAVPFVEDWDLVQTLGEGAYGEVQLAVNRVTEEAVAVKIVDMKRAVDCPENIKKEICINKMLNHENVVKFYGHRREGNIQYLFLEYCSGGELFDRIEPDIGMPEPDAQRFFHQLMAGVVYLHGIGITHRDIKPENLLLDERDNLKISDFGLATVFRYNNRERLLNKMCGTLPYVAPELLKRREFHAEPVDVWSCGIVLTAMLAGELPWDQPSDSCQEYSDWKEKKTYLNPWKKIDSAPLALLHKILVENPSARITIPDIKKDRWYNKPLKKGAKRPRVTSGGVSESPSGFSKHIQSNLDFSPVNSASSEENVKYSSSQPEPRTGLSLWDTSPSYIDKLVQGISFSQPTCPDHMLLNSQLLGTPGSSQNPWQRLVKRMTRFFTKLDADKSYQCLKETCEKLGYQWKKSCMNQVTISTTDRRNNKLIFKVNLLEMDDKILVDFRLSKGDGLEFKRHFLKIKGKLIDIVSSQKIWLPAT
Assay: CHK1 Enzyme Assay (phosphorylation of Chktide peptide, 33P-ATP filter assay)
Format: biochemical
Conditions: 12.5 nM His-CHK1, 0.01 mM ATP, 40 minutes at 30° C.; read-out: CHK1 Enzyme Activity (IC50 range)
Protocol: Assays for the CHK1 kinase activity were carried out by monitoring the phosphorylation of a synthetic peptide Chktide with the amino acid sequence, […]. The assay mixture containing the inhibitor and CHK1 enzyme was mixed together in a microtiter plate in a final volume of 50 μl and incubated for 40 minutes at 30° C.
The assay mixture contained 0.01 mM unlabeled ATP, 0.5 μCi ^33P-γ-ATP, 14.8 μM Chktide, 0.1 mg/mL BSA, 50 mM Hepes-NaOH pH 7.5 and 12.5 nM His-CHK1 (Invitrogen) enzyme. The reaction was stopped by adding 50 μL of 50 mM phosphoric acid. 90 μL of the mixture was transferred to a pre-wetted 96-well multi-screen MAPHNOB filtration plate (Millipore) and filtered on a vacuum manifold. The filter plate was washed with 3 successive additions of 200 μl 50 mM phosphoric acid and then with 100 μL methanol. The filtration plate was dried for 10 min at 65° C., scintillant added and phosphorylated peptide quantified in a scintillation counter (Trilux, PerkinElmer).

## O=C(Nc1cnn(Cc2ccccc2)c1)c1c[nH]c(=O)c(-c2cc3ccccc3[nH]2)c1 [Example 1, 5-(1H-Indol-2-yl)-6-oxo-1,6-dihydro-pyridine-3-carboxylic acid (1-benzyl-1H-pyrazol-4-yl)-amide]
  IC50: < 0.1 µM

## COc1ccc(Cn2cc(NC(=O)c3c[nH]c(=O)c(-c4cc5ccccc5[nH]4)c3)cn2)cc1 [Example 2, 5-(1H-Indol-2-yl)-6-oxo-1,6-dihydro-pyridine-3-carboxylic acid [1-(4-methoxy-benzyl)-1H-pyrazol-4-yl]-amide]
  IC50: 0.1 to 0.5 µM

## Cc1ccccc1Cn1cc(NC(=O)c2c[nH]c(=O)c(-c3cc4ccccc4[nH]3)c2)cn1 [Example 3, 5-(1H-Indol-2-yl)-6-oxo-1,6-dihydro-pyridine-3-carboxylic acid [1-(2-methyl-benzyl)-1H-pyrazol-4-yl]-amide]
  IC50: 0.5 to 1.5 µM

## Cc1cccc(Cn2cc(NC(=O)c3c[nH]c(=O)c(-c4cc5ccccc5[nH]4)c3)cn2)c1 [Example 4, 5-(1H-Indol-2-yl)-6-oxo-1,6-dihydro-pyridine-3-carboxylic acid[1-(3-methyl-benzyl)-1H-pyrazol-4-yl]-amide]
  IC50: < 0.1 µM

## Cc1ccc(Cn2cc(NC(=O)c3c[nH]c(=O)c(-c4cc5ccccc5[nH]4)c3)cn2)cc1 [Example 5, 5-(1H-Indol-2-yl)-6-oxo-1,6-dihydro-pyridine-3-carboxylic acid[1-(4-methyl-benzyl)-1H-pyrazol-4-yl]-amide]
  IC50: 0.1 to 0.5 µM

## N#Cc1cccc(Cn2cc(NC(=O)c3c[nH]c(=O)c(-c4cc5ccccc5[nH]4)c3)cn2)c1 [Example 6, 5-(1H-Indol-2-yl)-6-oxo-1,6-dihydro-pyridine-3-carboxylic acid [1-(3-cyano-benzyl)-1H-pyrazol-4-yl]-amide]
  IC50: 0.1 to 0.5 µM

## N#Cc1ccc(Cn2cc(NC(=O)c3c[nH]c(=O)c(-c4cc5ccccc5[nH]4)c3)cn2)cc1 [Example 7, 5-(1H-Indol-2-yl)-6-oxo-1,6-dihydro-pyridine-3-carboxylic acid [1-(4-cyano-benzyl)-1H-pyrazol-4-yl]-amide]
  IC50: 0.5 to 1.5 µM

## O=C(Nc1cnn(Cc2ccccc2F)c1)c1c[nH]c(=O)c(-c2cc3ccccc3[nH]2)c1 [Example 8, 5-(1H-Indol-2-yl)-6-oxo-1,6-dihydro-pyridine-3-carboxylic acid [1-(2-fluoro-benzyl)-1H-pyrazol-4-yl]-amide]
  IC50: 0.1 to 0.5 µM

## O=C(Nc1cnn(Cc2cccc(F)c2)c1)c1c[nH]c(=O)c(-c2cc3ccccc3[nH]2)c1 [Example 9, 5-(1H-Indol-2-yl)-6-oxo-1,6-dihydro-pyridine-3-carboxylic acid [1-(3-fluoro-benzyl)-1H-pyrazol-4-yl]-amide]
  IC50: < 0.1 µM

## O=C(Nc1cnn(Cc2ccc(F)cc2)c1)c1c[nH]c(=O)c(-c2cc3ccccc3[nH]2)c1 [Example 10, 5-(1H-Indol-2-yl)-6-oxo-1,6-dihydro-pyridine-3-carboxylic acid [1-(4-fluoro-benzyl)-1H-pyrazol-4-yl]-amide]
  IC50: < 0.1 µM

## O=C(Nc1cnn(Cc2ccc(F)c(F)c2)c1)c1c[nH]c(=O)c(-c2cc3ccccc3[nH]2)c1 [Example 11, 5-(1H-Indol-2-yl)-6-oxo-1,6-dihydro-pyridine-3-carboxylic acid [1-(3,4-difluoro-benzyl)-1H-pyrazol-4-yl]-amide]
  IC50: < 0.1 µM

## O=C(Nc1cnn(Cc2ccc(Cl)cc2)c1)c1c[nH]c(=O)c(-c2cc3ccccc3[nH]2)c1 [Example 12, 5-(1H-Indol-2-yl)-6-oxo-1,6-dihydro-pyridine-3-carboxylic acid [1-(4-chloro-benzyl)-1H-pyrazol-4-yl]-amide]
  IC50: 0.1 to 0.5 µM

## O=C(Nc1cnn(Cc2cc(F)cc(F)c2)c1)c1c[nH]c(=O)c(-c2cc3ccccc3[nH]2)c1 [Example 13, 5-(1H-Indol-2-yl)-6-oxo-1,6-dihydro-pyridine-3-carboxylic acid [1-(3,5-difluoro-benzyl)-1H-pyrazol-4-yl]-amide]
  IC50: < 0.1 µM

## Cc1ccc(Cn2cc(NC(=O)c3c[nH]c(=O)c(-c4cc5ccccc5[nH]4)c3)cn2)cc1F [Example 14, 5-(1H-Indol-2-yl)-6-oxo-1,6-dihydro-pyridine-3-carboxylic acid [1-(3-fluoro-4-methyl-benzyl)-1H-pyrazol-4-yl]-amide]
  IC50: 0.1 to 0.5 µM

## CN1CCN(C(=O)c2ccc3[nH]c(-c4cc(C(=O)Nc5cnn(Cc6ccccc6)c5)c[nH]c4=O)cc3c2)CC1 [Example 15, 5-[5-(4-Methyl-piperazine-1-carbonyl)-1H-indol-2-yl]-6-oxo-1,6-dihydro-pyridine-3-carboxylic acid (1-benzyl-1H-pyrazol-4-yl)-amide]
  IC50: < 0.1 µM

## O=C(Nc1cnn(Cc2ccccc2)c1)c1c[nH]c(=O)c(-c2cc3cc(CN4CCNCC4)ccc3[nH]2)c1 [Example 16, 6-oxo-5-(5-piperazin-1-ylmethyl-1H-indol-2-yl)-1,6-dihydro-pyridine-3-carboxylic acid (1-benzyl-1H-pyrazol-4-yl)-amide]
  IC50: < 0.1 µM

## Cc1[nH]c(=O)c(-c2cc3ccccc3[nH]2)cc1C(=O)Nc1cnn(Cc2ccccc2)c1 [Example 17, 5-(1H-Indol-2-yl)-2-methyl-6-oxo-1,6-dihydro-pyridine-3-carboxylic acid (1-benzyl-1H-pyrazol-4-yl)-amide]
  IC50: 0.5 to 1.5 µM

## Cc1[nH]c(=O)c(-c2cc3ccccc3[nH]2)cc1C(=O)Nc1cnn(Cc2cccc(F)c2)c1 [Example 18, 5-(1H-Indol-2-yl)-2-methyl-6-oxo-1,6-dihydro-pyridine-3-carboxylic acid [1-(3-fluoro-benzyl)-1H-pyrazol-4-yl]-amide]
  IC50: 0.5 to 1.5 µM

## Cc1[nH]c(=O)c(-c2cc3ccccc3[nH]2)cc1C(=O)Nc1cnn(Cc2ccc(F)c(F)c2)c1 [Example 19, 5-(1H-Indol-2-yl)-2-methyl-6-oxo-1,6-dihydro-pyridine-3-carboxylic acid [1-(3,4-difluoro-benzyl)-1H-pyrazol-4-yl]-amide]
  IC50: 0.1 to 0.5 µM

## O=C(Nc1c[nH]c(=O)c(-c2cc3ccccc3[nH]2)c1)c1cnn(Cc2ccc(F)cc2)c1 [Example 21, 1-(4-Fluoro-benzyl)-1H-pyrazole-4-carboxylic acid [5-(1H-indol-2-yl)-6-oxo-1,6-dihydro-pyridin-3-yl]-amide]
  IC50: < 0.1 µM

## O=C(Nc1c[nH]c(=O)c(-c2cc3ccccc3[nH]2)c1)c1cnn(Cc2cccc(F)c2)c1 [Example 22, 1-(3-Fluoro-benzyl)-1H-pyrazole-4-carboxylic acid [5-(1H-indol-2-yl)-6-oxo-1,6-dihydro-pyridin-3-yl]-amide]
  IC50: < 0.1 µM

## O=C(Nc1c[nH]c(=O)c(-c2cc3ccccc3[nH]2)c1)c1cnn(Cc2cccc(C(F)(F)F)c2)c1 [Example 23, 1-(3-Trifluoromethyl-benzyl)-1H-pyrazole-4-carboxylic acid [5-(1H-indol-2-yl)-6-oxo-1,6-dihydro-pyridin-3-yl]-amide]
  IC50: < 0.1 µM

## O=C(Nc1c[nH]c(=O)c(-c2cc3ccccc3[nH]2)c1)c1cnn(Cc2ccc(F)c(F)c2)c1 [Example 24, 1-(3,4-Difluoro-benzyl)-1H-pyrazole-4-carboxylic acid [5-(1H-indol-2-yl)-6-oxo-1,6-dihydro-pyridin-3-yl]-amide]
  IC50: < 0.1 µM

## O=C(Nc1c[nH]c(=O)c(-c2cc3ccccc3[nH]2)c1)c1cnn(Cc2ccc(C(F)(F)F)cc2)c1 [Example 25, 1-(4-Trifluoromethyl-benzyl)-1H-pyrazole-4-carboxylic acid [5-(1H-indol-2-yl)-6-oxo-1,6-dihydro-pyridin-3-yl]-amide]
  IC50: 0.1 to 0.5 µM
